Experimental data reported in article PMC12731536, “Sc(III) Complexes of Pyclen Derivative Ligands as Probes for Hypoxia: Synthesis, Chemical Characterization, ^44Sc‐Radiolabeling, and Preclinical Assessment” (Chemistry (Weinheim an Der Bergstrasse, Germany), 2025).
Read-outs that look alike come from different tables or passages of the source. One block for each molecule: values may come before it.

Tests used:
[1] = cited from earlier work
[2] = I = 0.15 M NaCl, T = 25 °C; cited from earlier work
[3] = Stability constants of Sc(III) complexes, out‐of‐cell (batch) samples, 45Sc NMR; assay type: physicochemical; settings: for AL/M (relative affinity): [Sc(III)]total = 10 nM, [L]tot = 100 nM
Method: The stability constant of the complex of PC2AM^nBu ligand formed with Sc(III) ion was studied using “out‐of‐cell” (batch) samples using ^45Sc NMR spectroscopy in strongly acidic media. Typical ^45Sc NMR spectra are shown in Figure 5 along with the corresponding ^1H NMR spectra of the aromatic region of the ligand.
Using the ^45Sc NMR signal intensities of free Sc^3+ measured in the equilibrated samples, the stability constant, K ScL, was calculated by fitting the areas with the PSEQUAD program ^[ [47] ^] (Figure 6). The best fitting was observed by considering the simplest model including only [Sc(PC2AM^nBu)]^+ species; that is, the formation of protonated [Sc(HPC2AM^nBu)]^2+ cannot be confirmed.
The stability constant of the [Sc(PCTA)] complex was determined in a similar way (Figure S13). The results were summarized in Table 2, including the data of [Sc(DO3AM‐NI)], determined in our previous study.^[ [33] ^]
Among the complexes shown in Table 2, the [Sc(DO3AM‐NI)] complex has the highest stability, but its stability constant is lower than the corresponding values of [Sc(DOTA)]^− (log K ScL = 30.79) and [Sc(DTPA)]^2− (log K ScL = 27.43). ^[ [49] ^] As evidenced for DO3AM‐mono(amide) the replacement of acetate side chains with amide groups results in a decrease in stability constant (and conditional stability); therefore, we can see an order of magnitude difference between the stabilities of [Sc(PCTA)] and [Sc(PC2AM^nBu)]^+. Although these K ScL constants and pSc values are somewhat lower than those of the complexes formed with traditional DOTA and DTPA ligands, these chelators remain remarkably good Sc(III)‐binding chelators. […] Therefore, following the proposal of M. Meyer and colleagues,^[ [48] ^] […] For the AL/M values, 1 corresponds to 90%, 2 corresponds to 99%, 3 corresponds to 99.9% etc. for complex formation. […] The AL/M data of the [Sc(PC2AM^nBu)]^+ complex only exceeds that of the [Sc(DO3AM‐NI)] complex in the pH < 3.0 range, which can be advantageous for labeling at low pH. Furthermore, based on the data in Table 2, it can be concluded that for these systems there is no discrepancy between the trends observed in the pSc and AL/M values.
The stability constant of [Sc(PC2AM^nBu)]^+ and [Sc(PCTA)] complexes was studied using “out‐of‐cell” (batch) samples using ^45Sc and ^1H NMR spectroscopy. The NMR spectra were obtained using a Bruker Avance II DRX spectrometer (9.4 T), equipped with Bruker Variable Temperature Unit, Bruker Cooling Unit, and a 5 mm BB inverse z gradient probe. For the investigation of [Sc(PC2AMnBu)]⁺, twelve samples (cSc(III) = 3.00 mM, cligand = 3.06 mM, in the pH range of –log[H^+] = 0.1–1.3; I = 1.0 M NaCl/HCl) were prepared in NMR tubes and kept at 25 °C for one week to reach equilibrium. During this period, ^1H and ^45Sc NMR measurements were performed daily to monitor changes in signal intensities. No significant changes were detected after one week, even in the most acidic sample. The intensities of the free Sc(III) signals were normalized using a standard 50 mM ScCl3 solution containing 1 M HCl (20% D2O). For the determination of the stability of the [Sc(PCTA)] complex, eleven “batch” samples (cSc(III) = 4.00 mM, cligand = 4.08 mM), in the pH range of –log[H^+] = 0.1–1.25, were prepared. The evaluation of the measured data was performed using the PSEQUAD program.^[ [47] ^] Samples were prepared in H2O, with 10% D2O added for deuterium lock. The actual resonance frequencies for ^1H, ^13C, ^19F, and ^45Sc are indicated in the text and figure captions. The chemical shifts of ^1H and ^13C were calibrated using an external TMS standard, while ^19F was referenced to CCl3F. The ^45Sc NMR shift was calibrated to 0 ppm using a 5 mM solution of ScCl3 in 0.1 M HCl.

[4] = pH‐potentiometric determination of ligand protonation constants; assay type: physicochemical; settings: T = 25 °C
Method: The equilibrium study of the PC2AM^nBu ligand has been started by determining the protonation constants in 0.15 M and 1.00 M NaCl ionic strength. (As the stability of the Sc(III) complex was determined in 1.00 M ionic strength, we had to perform the pH‐potentiometric titration of ligands using 1.00 M ionic strengths also.) The results of pH‐potentiometric measurement are shown in Table 1, where the corresponding data for 3,9‐PC2A,^[ [42] ^] PCTA ^[ [46] ^] and PC2AM‐NI ligands determined under identical conditions are also presented. Knowledge of the protonation constants defined by Eqn. 1 and 2 are essential for the calculation of the stability constants of the Sc(III) complexes:
(1) PC2AM^nBu^2−+nH^+⇌Hn(PC2AM^nBu)^−2+n (2) βn=HnPC2AM^nBu^−2+n/PC2AM^nBu^2−H^+^n
The protonation constants of the ligands, as well as the concentrations of the ligand stock solutions, were determined by pH‐potentiometric method using a Metrohm 785 DMP Titrino automatic titrator using a Metrohm 6.00234.100 combined glass electrode. The titrations were carried out in the pH range 1.75–11.80 and the pH electrode was calibrated by a two‐point calibration routine with the use of 0.05 M KH‐phthalate (pH = 4.005) and 0.01 M borax (pH = 9.177 buffers. The samples were stirred at 25 °C (±0.1 °C) and N2 gas bubbled into the system to ensure inert conditions and to eliminate the effect of the presence of CO2. For the calculation of [H^+] from the measured pH values, the method proposed by Irving et al. was applied.^[ [61] ^] For this, a 0.01 M HCl solution was titrated with the standardized NaOH solution in the presence of 0.15 M NaCl ionic strength at 25 °C. The differences between the measured (pHread) and calculated pH (‐log[H^+]) values were used to obtain the equilibrium H^+ concentration from the pHmeas values during the titrations. By fitting the resulting titration curves (pH – V (NaOH) data pairs) with the PSEQUAD program, the protonation constants of the ligands were determined.^[ [47] ^] The titration of the [Sc(PC2AM^nBu)]^+ with NaOH was performed with the same method by applying very similar conditions.

[5] = Acid‐assisted dissociation (decomplexation) of Sc(III) complexes, UV spectroscopy; assay type: physicochemical; settings: dissociation of the Sc(III) complex, 1.6‐2.6 M HClO4, 25 °C, I = 2.6 M
From the text: The inertness of metal complexes is a basic requirement in all relevant modalities of medical imaging. Complexes of macrocyclic ligands are often more inert compared to open‐chain analogs. In order to assess the behavior of our complexes, the decomplexation of [Sc(PC2AM^nBu)]^+ and [Sc(PCTA)] was studied in a strongly acidic medium (cH + = 1.6 ‐ 2.6 M HClO4) by using UV spectroscopy. […] The primary Abs. versus time curves have been fitted by monoexponential function returning kobs (s^−1) values (Figures S22 and S23).
The plots of the rate constants as a function of acid concentration yielded linear relationships for both complexes (k obs = k 0 + k 1[H^+]). The slopes of these lines correspond to the rate coefficients characteristic for acid‐assisted dissociation (k 1), whereas the intercepts characterize the acid‐independent part, often referred to as a rate of spontaneous dissociation. […] The rate coefficients obtained during the fitting are summarized in Table 3, along with the half‐lives calculated from the rate coefficients by using 1 M acid concentration (t ½ = ln 2 / k obs).
Kinetic studies of the dissociation of the [Sc(PC2AMnBu)]^+ and [Sc(PCTA)] complexes were carried out by examining the dependence of the dissociation rates on acid concentration. Spectrophotometric measurements were conducted on a JASCO V‐760 spectrophotometer at λ = 280 nm. The concentration of the complex in the sample was 0.30 mM, and HClO4 was applied in concentrations ranging from 1.6 to 2.6 M. The evaluation of the measured data was performed with Scientist software ^[ [62] ^] to determine the k 0 (spontaneous) and k 1 (acid‐assisted) reaction rates.

[6] = Time course of Sc(III) complex formation, 45Sc NMR; assay type: physicochemical
Method: The time course of complex formation of PC2AM^nBu and PCTA ligands with Sc(III) ion was investigated by ^45Sc‐NMR under acidic conditions (cSc = cligand = 10 mM and 9.5 mM, respectively, ‐log[H^+] = 1.28). The decrease of the narrow signal of the free Sc(III) ion was monitored as a function of time. […] The kinetic measurements of formation could be seen in Figures S18 and S19. The complexation for the [Sc(PCTA)] chelate at pH = 1.28 and 25 °C took about 300 minutes to reach the equilibrium, whereas for the [Sc(PC2AM^nBu)]^+ complex it took a bit longer time under these conditions. (In order to confirm that the samples reached the equilibrium, we have repeated the ^45Sc NMR study for both samples after a few days when the signal of the free Sc(III) was absent, and only the signals of the complexes were detected.) The detailed study of formation kinetics was not our aim in this project. One can expect that the reaction follows the well‐known mechanisms of M(III) ‐ macrocyclic APC systems ^[ [54] ^]: formation of a protonated intermediate in fast pre‐equilibrium followed by a slow, base‐catalyzed deprotonation/structural rearrangement as a rate‐determining step. The intermediate is named also as “out‐of‐cage complex.”^[ [55] ^] Our experimental curves are likely in accordance with this mechanism. Fitting the measured data for the free Sc(III) signals by a monoexponential function gives the rate constant k obs = (1.04 ± 0 .05) x 10^−4 s^−1 for the [Sc(PC2AM^nBu)]^+ and k obs = (2.51 ± 0.12) x 10^−4 s^−1 for the [Sc(PCTA)] complex. […] The relatively fast complex formation at the given acidic condition is very encouraging for the Sc(III) labeling experiments.
^45Sc NMR measurements (97 MHz) were performed on a Bruker DRX 400 (9.4 T) spectrometer equipped with a Bruker VT‐1000 thermocontroller and a BB inverse z‐gradient probe (5 mm). The kinetic experiments were performed at 25 °C in aqueous solution, using D2O (10% v/v) as a lock solvent. Typical parameters for 45Sc NMR measurements were used: TD = 32k, p1 = 15.6 µs (90°), d 1 = 0.1 s. The formation reactions of the [Sc(PC2AM^nBu)]^+ and [Sc(PCTA)] complexes were monitored by ^45Sc NMR spectroscopy in two sample types: one containing 10.0 mM PC2AM^nBu and ScCl3 / 9.5 mM […] and ScCl3. In both cases, the total acid concentration corresponded to a pH of 1.28. Obtained monoexponential curves (signal area of free Sc(III) vs. time) were fitted using Scientist software ^[ [62] ^] to determine the formation rate.

AL/M (relative affinity) ([3]; pH = 7.4, I = 0.15 M NaCl, calculated from constants of ref 33): 6.57
SMILES: O=C(O)CN1CCN(CC(=O)O)CCN(CC(=O)NCCn2ccnc2[N+](=O)[O-])CCN(CC(=O)O)CC1 [DO3AM‐NI]
pSc ([1]; pSc = ‐log[Sc(III)]free, cSc(III) = 1x10^−8 M, clig = 1x10^−7 M, pH = 7.4, I = 0.15 M NaCl): 20.74
log K ScL ([1]; stability constant of the Sc(III) complex, I = 0.15 M NaCl, T = 25 °C): 22.36
log β 2 ^H [2]: 17.38

log K 1 ^H ([4]; I = 0.15 M NaCl): 8.79(1)
log K 2 ^H ([4]; I = 0.15 M NaCl): 7.59(1)
log K 3 ^H ([4]; I = 0.15 M NaCl): 2.31(2)
log K 4 ^H ([4]; I = 0.15 M NaCl): 1.28(3)
log β 2 ^H ([4]; I = 0.15 M NaCl): 16.38
log K 1 ^H ([4]; I = 1.00 M NaCl): 8.13(2)
log K 2 ^H ([4]; I = 1.00 M NaCl): 7.59(1)
log K 3 ^H ([4]; I = 1.00 M NaCl): 2.52(1)
log β 2 ^H ([4]; I = 1.00 M NaCl): 15.72
AL/M (relative affinity) ([3]; pH = 7.4, I = 1.00 M NaCl): 5.17
pSc ([3]; pSc = ‐log[Sc(III)]free, cSc(III) = 1x10^−8 M, clig = 1x10^−7 M, pH = 7.4, I = 1.00 M NaCl): 19.32
log K ScL ([3]; stability constant of the Sc(III) complex, I = 1.00 M NaCl, T = 25 °C): 19.53(4)
SMILES: CCCCNC(=O)CN1CCN(CC(=O)O)Cc2cccc(n2)CN(CC(=O)O)CC1 [PC2AM^nBu]
k 0 (spontaneous dissociation) [5]: 0 s⁻¹
k 1 (acid‐assisted dissociation) [5]: (3.64 ± 0.08) x 10^−7 M^−1s^−1

SMILES: O=C([O-])CN1CCN(CC(=O)[O-])CCN(CC(=O)[O-])CCN(CC(=O)[O-])CC1.[Sc+3] [[Sc(DOTA)]^−]
log K ScL ([1]; literature stability constant): 30.79

SMILES: O=C([O-])CN(CCN(CC(=O)[O-])CC(=O)[O-])CCN(CC(=O)[O-])CC(=O)[O-].[Sc+3] [[Sc(DTPA)]^2−]
log K ScL ([1]; literature stability constant): 27.43

SMILES: O=C([O-])CN1CCN(CC(=O)[O-])Cc2cccc(n2)CN(CC(=O)[O-])CC1.[Sc+3] [[Sc(PCTA)]]
time of complexation to reach the equilibrium ([6]; pH = 1.28, 25 °C): about 300 minutes
half‐life of the complex formation reaction (t 1/2 = ln2 / k obs) ([6]; ‐log[H^+] = 1.28, 25 °C): 46 min
k obs of complex formation ([6]; ‐log[H^+] = 1.28, 25 °C, cSc = cligand = 10 mM (PC2AM^nBu) or 9.5 mM (PCTA), monoexponential fit of free Sc(III) signal): (2.51 ± 0.12) x 10^−4 s^−1
